Source: paper PMC5666424, “Marine-Derived 2-Aminoimidazolone Alkaloids. Leucettamine B-Related Polyandrocarpamines Inhibit Mammalian and Protozoan DYRK & CLK Kinases” (Marine Drugs, 2017)
Read-outs that look alike come from different tables or passages of the source.

What was measured:
Experiment in all cases: Protein kinase assay
[1] = target: CDK1/cyclin B; format: biochemical, starfish; conditions: 15 μmol/L ATP
[2] = target: CK1δ/ε; format: biochemical, porcine; conditions: 15 μmol/L ATP
Description: (§1) CK1δ/ε (porcine brain, native) and LmCK1 (leishmania major, recombinant, expressed in E. coli as HIS fusion proteins) was assayed as described for CDK1 but in buffer C and using 25 μM CKS peptide ([…]pSAYSITA), a CK1-specific substrate.

[3] = target: DYRK1A (Homo sapiens, UniProt Q13627); format: biochemical; conditions: 15 μmol/L ATP
[4] = target: DYRK1B (Homo sapiens, UniProt Q9Y463); format: biochemical; conditions: 15 μmol/L ATP
[5] = target: T1, DYRK2 (Homo sapiens, UniProt Q92630); format: biochemical; conditions: 15 μmol/L ATP; read-out: IC50 DYRK2
T1 sequence (Q92630 1-601): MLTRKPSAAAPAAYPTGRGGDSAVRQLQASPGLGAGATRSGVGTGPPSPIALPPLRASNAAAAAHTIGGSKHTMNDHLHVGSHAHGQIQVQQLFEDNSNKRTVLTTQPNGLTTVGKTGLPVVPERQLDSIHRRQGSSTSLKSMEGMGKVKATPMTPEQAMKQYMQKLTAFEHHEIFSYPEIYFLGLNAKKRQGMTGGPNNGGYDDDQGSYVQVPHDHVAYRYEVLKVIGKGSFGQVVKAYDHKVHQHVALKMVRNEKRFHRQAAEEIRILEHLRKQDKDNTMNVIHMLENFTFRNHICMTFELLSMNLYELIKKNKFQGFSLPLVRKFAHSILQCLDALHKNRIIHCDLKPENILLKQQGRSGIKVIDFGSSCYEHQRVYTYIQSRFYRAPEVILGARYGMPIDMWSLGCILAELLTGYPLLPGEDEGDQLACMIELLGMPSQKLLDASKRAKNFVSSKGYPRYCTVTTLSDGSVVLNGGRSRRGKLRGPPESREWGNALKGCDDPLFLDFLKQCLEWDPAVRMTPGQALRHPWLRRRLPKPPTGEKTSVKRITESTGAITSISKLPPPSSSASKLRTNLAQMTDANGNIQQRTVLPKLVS

[6] = target: T2, DYRK3 (Homo sapiens, UniProt O43781); format: biochemical; conditions: 15 μmol/L ATP; read-out: IC50 DYRK3
T2 sequence (O43781 1-588): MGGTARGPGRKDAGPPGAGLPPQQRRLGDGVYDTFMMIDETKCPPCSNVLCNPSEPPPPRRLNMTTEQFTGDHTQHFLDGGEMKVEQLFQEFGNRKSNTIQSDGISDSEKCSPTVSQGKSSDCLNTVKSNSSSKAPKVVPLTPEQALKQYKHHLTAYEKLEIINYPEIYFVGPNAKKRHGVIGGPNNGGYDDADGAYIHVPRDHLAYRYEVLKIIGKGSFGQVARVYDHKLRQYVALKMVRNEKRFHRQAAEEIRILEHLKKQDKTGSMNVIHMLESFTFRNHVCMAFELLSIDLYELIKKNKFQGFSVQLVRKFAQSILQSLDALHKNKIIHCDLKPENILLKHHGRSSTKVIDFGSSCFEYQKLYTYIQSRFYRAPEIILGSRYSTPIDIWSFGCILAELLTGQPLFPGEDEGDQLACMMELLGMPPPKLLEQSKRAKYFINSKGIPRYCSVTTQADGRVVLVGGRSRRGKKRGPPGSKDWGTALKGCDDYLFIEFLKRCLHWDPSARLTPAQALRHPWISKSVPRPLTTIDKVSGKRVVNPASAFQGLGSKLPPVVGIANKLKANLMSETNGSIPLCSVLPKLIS

[7] = target: GSK-3α/β; format: biochemical, porcine; conditions: 15 μmol/L ATP
[8] = target: CDK9/cyclin T (Homo sapiens, UniProt P50750); conditions: 15 μmol/L ATP
[9] = target: CLK1 (Mus musculus, UniProt P22518)
[10] = target: CLK2 (Mus musculus, UniProt O35491)
[11] = target: CLK3 (Mus musculus, UniProt O35492)
[12] = target: CLK4 (Mus musculus, UniProt O35493)
[13] = target: T3, CDK2/cyclin A (Homo sapiens, UniProt P24941); format: biochemical; conditions: 15 μmol/L ATP; read-out: IC50 CDK2/cyclin A
T3 construct: made in house

[14] = target: T4, CDK5/p25 (Homo sapiens, UniProt Q00535); format: biochemical; conditions: 15 μmol/L ATP; read-out: IC50 CDK5/p25
T4 construct: made in house

[15] = target: T5, PfGSK-3 (Plasmodium falciparum, UniProt O77344); format: biochemical; conditions: 15 μmol/L ATP; read-out: IC50 PfGSK-3
T5 sequence (O77344 1-440): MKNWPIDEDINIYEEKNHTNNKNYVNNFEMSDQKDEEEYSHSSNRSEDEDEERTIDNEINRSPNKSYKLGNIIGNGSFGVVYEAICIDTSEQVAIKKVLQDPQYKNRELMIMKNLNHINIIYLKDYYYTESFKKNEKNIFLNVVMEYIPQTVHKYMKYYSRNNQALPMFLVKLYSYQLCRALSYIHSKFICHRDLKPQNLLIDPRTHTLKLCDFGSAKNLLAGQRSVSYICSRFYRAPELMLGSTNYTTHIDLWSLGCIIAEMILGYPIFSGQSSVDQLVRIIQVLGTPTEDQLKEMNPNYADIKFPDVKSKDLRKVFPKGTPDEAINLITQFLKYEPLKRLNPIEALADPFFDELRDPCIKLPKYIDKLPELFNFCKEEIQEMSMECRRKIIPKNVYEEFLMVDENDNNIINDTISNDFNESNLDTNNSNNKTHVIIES
Description: The parasitic kinase genes (Supplementary Data, Table S3) were optimized for expression in E. coli, synthesized, and cloned in pGEX-6P-1 (GE Healthcare, Sigma-Aldrich, St. Quentin Fallavier, France) with the type II restriction enzymes BamHI and XhoI for glutathione S-transferase (GST) fusion at the N-terminus (GenScript). Plasmids were transformed into chemically competent E. coli BL21(DE3), which were grown overnight at 37 °C in 2 × YT medium containing 100 μg/mL ampicillin. These cultures were used to inoculate 1 L volumes of 2 × YT medium (containing 100 μg/mL ampicillin) in 5 L flasks. The cultures were allowed to grow at 37 °C before the temperature was decreased to 18 °C. At an optical density at 600 nm (OD600) of about 1.0, protein expression was induced overnight at 18 °C with 0.1 mM isopropyl β-D-1-thiogalactopyranoside (IPTG). The bacteria were harvested by centrifugation and were frozen at −20 °C.
Cells were resuspended in a lysis buffer (PBS pH 7.4, 1% NP40, 1 mM DTT, 1 mM EDTA, 1 mM PMSF) in the presence of protease inhibitor cocktail (Roche), and lysozyme was added to 1 mg/mL and incubated 1 h at 4 °C with gentle agitation. Cells were then sonicated on ice before 6 mM MgCl2 and 25 U/mL benzonase (Novagen, Merck Millipore, Fontenay sous Bois, France) were added to degrade nucleic acids and decrease sample viscosity. After centrifugation at 4 °C, the soluble fraction was collected and proteins were bound to Glutathione sepharose 4B beads (GE Healthcare). Beads were washed three times with lysis buffer and once with modified buffer C (25 mM MOPS pH 7.0, 60 mM β-glycerophosphate, 15 mM p-nitrophenylphosphate, 15 mM EGTA, 15 mM MgCl2, 2 mM DTT, 1 mM sodium vanadate). Proteins were eluted with elution buffer (buffer C containing 30 mM reduced glutathione, 15% glycerol, and pH adjusted to 8.5).

[16] = target: LmCK1 (Leishmania major, UniProt Q9NHE1); format: biochemical; conditions: 15 μmol/L ATP; read-out: IC50 LmCK1
Description: as §1

[17] = read-out: IC50 CLK1, 15 μmol/L ATP
[18] = read-out: IC50 CLK2, 15 μmol/L ATP
[19] = read-out: IC50 CLK3, 15 μmol/L ATP
[20] = read-out: IC50 CLK4, 15 μmol/L ATP

Sequence of LmCK1 (Q9NHE1 entry or part of it): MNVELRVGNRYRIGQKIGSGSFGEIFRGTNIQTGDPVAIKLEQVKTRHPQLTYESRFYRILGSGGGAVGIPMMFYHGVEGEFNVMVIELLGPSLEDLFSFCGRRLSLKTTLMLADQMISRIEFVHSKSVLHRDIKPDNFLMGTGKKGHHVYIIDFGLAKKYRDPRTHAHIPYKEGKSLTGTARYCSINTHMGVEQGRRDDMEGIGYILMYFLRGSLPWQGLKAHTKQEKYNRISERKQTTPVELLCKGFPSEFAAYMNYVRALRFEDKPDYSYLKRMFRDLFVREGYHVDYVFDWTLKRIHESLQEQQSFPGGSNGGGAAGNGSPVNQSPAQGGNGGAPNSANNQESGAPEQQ
Sequence of DYRK1B (Q9Y463 whole entry): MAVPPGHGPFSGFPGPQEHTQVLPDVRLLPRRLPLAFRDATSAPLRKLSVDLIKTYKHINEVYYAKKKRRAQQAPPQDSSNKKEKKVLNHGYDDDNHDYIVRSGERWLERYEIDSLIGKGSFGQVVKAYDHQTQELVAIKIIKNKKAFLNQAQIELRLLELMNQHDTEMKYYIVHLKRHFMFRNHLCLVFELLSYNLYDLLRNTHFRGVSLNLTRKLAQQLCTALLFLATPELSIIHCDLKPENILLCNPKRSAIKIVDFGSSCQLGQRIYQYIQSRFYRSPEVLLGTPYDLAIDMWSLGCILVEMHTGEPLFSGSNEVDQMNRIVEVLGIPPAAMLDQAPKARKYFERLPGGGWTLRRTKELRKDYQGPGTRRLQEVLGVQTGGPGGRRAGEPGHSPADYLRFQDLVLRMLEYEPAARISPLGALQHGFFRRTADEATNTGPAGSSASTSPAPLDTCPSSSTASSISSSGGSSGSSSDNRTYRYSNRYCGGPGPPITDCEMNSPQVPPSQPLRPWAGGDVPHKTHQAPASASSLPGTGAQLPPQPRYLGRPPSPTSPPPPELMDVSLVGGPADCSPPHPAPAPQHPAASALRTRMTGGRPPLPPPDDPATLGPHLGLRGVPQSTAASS
Sequence of CDK9/cyclin T (P50750 whole entry): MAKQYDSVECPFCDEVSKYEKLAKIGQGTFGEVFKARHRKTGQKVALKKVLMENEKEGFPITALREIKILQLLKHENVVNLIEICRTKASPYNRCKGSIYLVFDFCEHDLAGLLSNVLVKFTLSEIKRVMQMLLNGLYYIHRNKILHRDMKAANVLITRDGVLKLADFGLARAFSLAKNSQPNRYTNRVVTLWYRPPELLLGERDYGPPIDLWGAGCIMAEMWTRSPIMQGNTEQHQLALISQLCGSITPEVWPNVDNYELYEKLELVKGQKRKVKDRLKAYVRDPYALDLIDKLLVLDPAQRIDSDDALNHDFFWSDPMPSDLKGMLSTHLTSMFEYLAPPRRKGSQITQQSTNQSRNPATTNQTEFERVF
Sequence of CDK9/cyclin T (O60563 whole entry partner): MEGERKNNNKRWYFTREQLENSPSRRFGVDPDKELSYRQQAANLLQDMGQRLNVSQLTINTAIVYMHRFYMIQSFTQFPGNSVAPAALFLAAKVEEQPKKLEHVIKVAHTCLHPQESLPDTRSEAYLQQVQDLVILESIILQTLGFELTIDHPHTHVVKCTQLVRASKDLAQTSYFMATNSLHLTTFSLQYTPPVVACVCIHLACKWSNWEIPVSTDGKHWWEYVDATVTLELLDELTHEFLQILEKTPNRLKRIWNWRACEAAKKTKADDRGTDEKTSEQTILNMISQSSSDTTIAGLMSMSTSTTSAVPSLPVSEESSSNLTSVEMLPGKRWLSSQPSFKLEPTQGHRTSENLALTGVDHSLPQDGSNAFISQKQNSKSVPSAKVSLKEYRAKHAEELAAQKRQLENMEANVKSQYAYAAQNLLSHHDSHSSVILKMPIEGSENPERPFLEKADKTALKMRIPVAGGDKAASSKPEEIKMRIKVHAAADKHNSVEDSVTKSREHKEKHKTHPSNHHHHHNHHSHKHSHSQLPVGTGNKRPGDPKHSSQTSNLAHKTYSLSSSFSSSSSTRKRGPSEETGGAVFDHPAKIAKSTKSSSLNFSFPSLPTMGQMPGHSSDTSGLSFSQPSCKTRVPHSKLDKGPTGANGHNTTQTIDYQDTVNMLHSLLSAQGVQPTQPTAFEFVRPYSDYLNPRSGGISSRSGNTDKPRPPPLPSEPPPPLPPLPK
Sequence of CLK4 (O35493 whole entry): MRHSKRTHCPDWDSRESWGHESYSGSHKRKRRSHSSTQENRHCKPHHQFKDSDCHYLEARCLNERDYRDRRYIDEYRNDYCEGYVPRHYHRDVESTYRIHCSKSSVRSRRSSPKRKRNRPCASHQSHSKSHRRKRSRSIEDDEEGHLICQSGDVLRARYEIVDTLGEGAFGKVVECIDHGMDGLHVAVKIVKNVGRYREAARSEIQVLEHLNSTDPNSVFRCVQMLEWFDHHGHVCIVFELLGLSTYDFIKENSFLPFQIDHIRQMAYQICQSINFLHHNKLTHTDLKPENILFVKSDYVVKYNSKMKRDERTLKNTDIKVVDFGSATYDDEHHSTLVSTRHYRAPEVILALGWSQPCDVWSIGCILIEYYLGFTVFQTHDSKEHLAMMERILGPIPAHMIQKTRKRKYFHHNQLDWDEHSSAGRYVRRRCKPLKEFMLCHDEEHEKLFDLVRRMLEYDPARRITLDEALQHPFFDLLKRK
Sequence of CLK1 (P22518 whole entry): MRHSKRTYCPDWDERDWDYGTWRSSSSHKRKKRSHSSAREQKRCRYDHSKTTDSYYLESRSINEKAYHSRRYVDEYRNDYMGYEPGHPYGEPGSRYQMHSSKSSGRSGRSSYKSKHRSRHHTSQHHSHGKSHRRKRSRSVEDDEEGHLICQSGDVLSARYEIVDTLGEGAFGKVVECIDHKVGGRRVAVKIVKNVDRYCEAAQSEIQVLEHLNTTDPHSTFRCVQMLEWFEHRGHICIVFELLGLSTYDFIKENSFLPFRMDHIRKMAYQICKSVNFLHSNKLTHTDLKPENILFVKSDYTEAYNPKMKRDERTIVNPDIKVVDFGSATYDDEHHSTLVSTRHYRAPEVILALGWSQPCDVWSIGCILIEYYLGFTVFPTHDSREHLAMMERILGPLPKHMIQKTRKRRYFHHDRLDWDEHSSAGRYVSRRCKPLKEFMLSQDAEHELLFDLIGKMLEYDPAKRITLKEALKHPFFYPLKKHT
Sequence of CLK3 (O35492 whole entry): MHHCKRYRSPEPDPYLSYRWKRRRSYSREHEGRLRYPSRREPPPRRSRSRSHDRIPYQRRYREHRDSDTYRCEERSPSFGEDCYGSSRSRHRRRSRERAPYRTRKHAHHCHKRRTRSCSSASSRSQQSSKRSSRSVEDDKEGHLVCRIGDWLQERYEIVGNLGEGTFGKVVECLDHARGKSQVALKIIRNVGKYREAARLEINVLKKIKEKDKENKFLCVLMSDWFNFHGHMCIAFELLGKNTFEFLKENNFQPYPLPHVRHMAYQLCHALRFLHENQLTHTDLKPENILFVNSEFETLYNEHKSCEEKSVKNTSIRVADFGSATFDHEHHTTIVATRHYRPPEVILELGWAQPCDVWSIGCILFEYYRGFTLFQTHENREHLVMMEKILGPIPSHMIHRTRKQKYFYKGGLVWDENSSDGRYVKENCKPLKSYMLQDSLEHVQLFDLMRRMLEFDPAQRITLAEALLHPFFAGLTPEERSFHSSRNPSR
Sequence of CLK2 (O35491 whole entry): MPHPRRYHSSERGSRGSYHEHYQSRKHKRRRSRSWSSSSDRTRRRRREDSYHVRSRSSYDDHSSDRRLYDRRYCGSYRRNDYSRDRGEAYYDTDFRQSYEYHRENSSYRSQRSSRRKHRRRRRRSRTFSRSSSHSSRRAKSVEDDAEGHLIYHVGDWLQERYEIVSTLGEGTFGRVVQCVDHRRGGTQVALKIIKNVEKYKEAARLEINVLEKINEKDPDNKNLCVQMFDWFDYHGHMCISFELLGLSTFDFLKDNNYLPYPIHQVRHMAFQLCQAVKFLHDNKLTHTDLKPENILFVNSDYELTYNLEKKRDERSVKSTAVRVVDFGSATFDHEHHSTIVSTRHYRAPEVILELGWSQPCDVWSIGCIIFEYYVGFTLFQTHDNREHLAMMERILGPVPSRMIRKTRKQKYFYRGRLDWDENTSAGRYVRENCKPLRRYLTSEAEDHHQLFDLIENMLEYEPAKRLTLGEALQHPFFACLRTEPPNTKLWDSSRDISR
T4 sequence (Q00535 whole entry): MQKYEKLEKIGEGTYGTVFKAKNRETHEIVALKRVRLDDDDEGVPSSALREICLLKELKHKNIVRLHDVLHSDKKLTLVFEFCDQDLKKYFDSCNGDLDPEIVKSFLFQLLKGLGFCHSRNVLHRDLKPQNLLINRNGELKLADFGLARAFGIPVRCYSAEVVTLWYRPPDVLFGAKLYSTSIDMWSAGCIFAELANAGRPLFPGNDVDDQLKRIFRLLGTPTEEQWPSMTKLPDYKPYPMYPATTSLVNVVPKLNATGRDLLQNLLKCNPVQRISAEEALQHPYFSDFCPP
T4 sequence (Q15078 99-307 partner limits assumed): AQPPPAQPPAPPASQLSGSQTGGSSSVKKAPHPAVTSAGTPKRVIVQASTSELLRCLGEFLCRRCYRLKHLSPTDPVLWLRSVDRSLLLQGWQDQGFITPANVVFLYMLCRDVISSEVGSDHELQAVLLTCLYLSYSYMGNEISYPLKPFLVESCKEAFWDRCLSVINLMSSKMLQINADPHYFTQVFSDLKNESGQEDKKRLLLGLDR

IC50 [1] | IC50 [3] | IC50 [4] | IC50 [5] | IC50 [6] | IC50 [7] | IC50 [13] | IC50 [14] | IC50 [2] | IC50 [15] | IC50 [16] | IC50 ([8]; read-out: IC50 CDK9/cyclin T) | IC50 [9, 17] | IC50 [10, 18] | IC50 [11, 19] | IC50 [12, 20] | SMILES | IC50 ([8]; IC50 CDK9/cyclin T) | IC50 ([10]; IC50 CLK2, 15 μmol/L ATP) | IC50 ([11]; IC50 CLK3, 15 μmol/L ATP) | IC50 ([12]; IC50 CLK4, 15 μmol/L ATP) | other results
– | 0.75 µM | 1.1 µM | 0.48 µM | 0.9 µM | – | – | – | – | – | – | – | – | – | – | – | NC1=N/C(=C\c2ccc(O)c(O)c2)C(=O)N1 [PAC2, polyandrocarpamine B] | 2 µM | 2.5 µM | 9.2 µM | 0.95 µM | –
> 10 µM | 4 µM | > 10 µM | 4.5 µM | 5.1 µM | > 10 µM | ≥ 10 µM | > 10 µM | ≥ 10 µM | > 10 µM | > 10 µM | > 10 µM | ≥ 10 µM | > 10 µM | > 10 µM | ≥ 10 µM | COc1ccc(C=C2N=C(N)NC2=O)cc1F [PAC4] | – | – | – | – | –
> 10 µM | 1.3 µM | 6.1 µM | 0.64 µM | 5.7 µM | > 10 µM | > 10 µM | > 10 µM | > 10 µM | > 10 µM | > 10 µM | ≥ 10 µM | 2.2 µM | 7.5 µM | > 10 µM | 2.4 µM | COc1cc(C=C2N=C(N)NC2=O)ccc1F [PAC5] | – | – | – | – | –
– | 0.59 µM | 0.96 µM | 0.38 µM | 0.68 µM | – | – | – | – | – | – | – | – | – | – | – | NC1=N/C(=C\c2ccc(O)c(O)c2)C(=O)N1 [PAC13, polyandrocarpamine B] | 1.8 µM | 2.42 µM | 10 µM | 0.91 µM | –

More lines, now with the values behind:

SMILES | IC50 [1] | IC50 [3] | IC50 [4] | IC50 [5] | IC50 [6] | IC50 [7] | IC50 [13] | IC50 [14] | IC50 [2] | IC50 [15] | IC50 [16] | IC50 ([8]; read-out: IC50 CDK9/cyclin T) | IC50 [9, 17] | IC50 [10, 18] | IC50 [11, 19] | IC50 [12, 20] | IC50 ([8]; IC50 CDK9/cyclin T) | IC50 ([10]; IC50 CLK2, 15 μmol/L ATP) | IC50 ([11]; IC50 CLK3, 15 μmol/L ATP) | IC50 ([12]; IC50 CLK4, 15 μmol/L ATP) | other results
COc1cc(/C=C2\N=C(N)NC2=O)ccc1O [PAC1, polyandrocarpamine A] | > 10 µM | 0.23 µM | 0.4 µM | 0.14 µM | 0.28 µM | > 10 µM | – | – | – | – | – | – | – | – | – | – | 1.1 µM | 1.2 µM | 2.3 µM | 0.4 µM | IC50 ([2]; listed as 1): 5.2 µM; IC50 ([9]; IC50 CLK1, 15 μmol/L ATP): 0.43 µM
NC1=NC(=Cc2cccc(Br)c2)C(=O)N1 [PAC3] | > 10 µM | 2.1 µM | 8.2 µM | 2.2 µM | > 10 µM | > 10 µM | ≥ 10 µM | > 10 µM | ≥ 10 µM | > 10 µM | > 10 µM | > 10 µM | 2.2 µM | 6.3 µM | > 10 µM | 2.3 µM | – | – | – | – | –
CN(C)CCOc1ccc(C=C2N=C(N)NC2=O)cc1 [PAC6] | > 10 µM | > 10 µM | > 10 µM | > 10 µM | > 10 µM | > 10 µM | > 10 µM | > 10 µM | > 10 µM | > 10 µM | > 10 µM | > 10 µM | > 10 µM | > 10 µM | > 10 µM | > 10 µM | – | – | – | – | –
NC1=NC(=Cc2ccccc2N2CCOCC2)C(=O)N1 [PAC7] | > 10 µM | > 10 µM | > 10 µM | > 10 µM | > 10 µM | > 10 µM | > 10 µM | > 10 µM | > 10 µM | > 10 µM | > 10 µM | > 10 µM | > 10 µM | > 10 µM | > 10 µM | > 10 µM | – | – | – | – | –
NC1=NC(=Cc2ccc(-n3ccnc3)cc2)C(=O)N1 [PAC8] | > 10 µM | > 10 µM | > 10 µM | > 10 µM | > 10 µM | > 10 µM | > 10 µM | > 10 µM | > 10 µM | > 10 µM | > 10 µM | 0.51 µM | > 10 µM | > 10 µM | > 10 µM | > 10 µM | – | – | – | – | –
COc1cc(/C=C2\N=C(N)NC2=O)ccc1O [PAC12, polyandrocarpamine A] | – | 0.3 µM | 0.47 µM | 0.24 µM | 0.34 µM | – | – | – | – | – | – | – | – | – | – | – | 0.9 µM | 0.64 µM | 2.7 µM | 0.47 µM | IC50 ([2]; listed as 12): 5 µM; IC50 ([9]; IC50 CLK1, 15 μmol/L ATP): 0.47 µM
